For orientation: IC50 means the concentration needed to halve the response being measured.

This assay has as its target T1, TLR9 (Homo sapiens, UniProt Q9NR96).
T1 construct: Fresh blood was collected from normal human donors; endogenous in cells; host or cells: human PBMCs from fresh donor blood
T1 sequence (Q9NR96 26-1032): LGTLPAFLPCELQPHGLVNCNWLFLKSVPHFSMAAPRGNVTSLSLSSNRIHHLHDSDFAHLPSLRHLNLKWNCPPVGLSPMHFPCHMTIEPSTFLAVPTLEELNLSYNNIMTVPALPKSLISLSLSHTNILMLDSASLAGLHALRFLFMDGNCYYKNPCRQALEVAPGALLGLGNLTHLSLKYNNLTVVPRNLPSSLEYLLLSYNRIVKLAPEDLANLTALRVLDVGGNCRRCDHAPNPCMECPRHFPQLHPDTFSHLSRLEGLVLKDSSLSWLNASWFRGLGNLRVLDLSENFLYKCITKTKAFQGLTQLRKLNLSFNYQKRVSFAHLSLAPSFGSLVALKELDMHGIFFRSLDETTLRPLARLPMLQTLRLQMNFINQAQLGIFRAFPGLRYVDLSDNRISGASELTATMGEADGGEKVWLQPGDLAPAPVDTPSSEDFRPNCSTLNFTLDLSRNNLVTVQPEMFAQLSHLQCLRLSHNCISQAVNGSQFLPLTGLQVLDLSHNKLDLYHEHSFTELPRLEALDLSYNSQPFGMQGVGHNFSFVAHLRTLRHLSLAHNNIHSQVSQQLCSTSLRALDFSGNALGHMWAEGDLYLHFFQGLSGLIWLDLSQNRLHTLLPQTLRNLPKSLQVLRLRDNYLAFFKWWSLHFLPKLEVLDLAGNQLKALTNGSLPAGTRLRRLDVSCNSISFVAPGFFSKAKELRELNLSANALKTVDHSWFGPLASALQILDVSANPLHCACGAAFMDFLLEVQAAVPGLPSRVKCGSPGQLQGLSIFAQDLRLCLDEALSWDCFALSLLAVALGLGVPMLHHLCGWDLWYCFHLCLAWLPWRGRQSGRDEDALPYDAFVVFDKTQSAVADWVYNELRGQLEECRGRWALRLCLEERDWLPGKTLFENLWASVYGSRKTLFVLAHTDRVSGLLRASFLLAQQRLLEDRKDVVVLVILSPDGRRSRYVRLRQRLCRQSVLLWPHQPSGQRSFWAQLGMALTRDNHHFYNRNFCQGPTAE
Nature of the assay: huPBMC TLR9 Antagonist IFNα Assay. Format: cell-based. The note with it: human PBMCs stimulated with ODN2216 0.3 μM, 14-16 hrs; IFNα2b AlphaLISA read-out. The procedure, abridged: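 Human PBMCs from fresh donor blood (150,000 cells/well) stimulated 14–16 h at 37 °C with DOTAP-complexed ssRNA40 (final 1 μg/ml for TLR8, 10 μg/mL for TLR7) or ODN2216 (final 0.3 μM, TLR9), 0.25% DMSO, ten-point 1/3 compound dilutions. Supernatant IL-6 read by HTRF (TLR8); IFNα by IFNα2b AlphaLISA (TLR7/TLR9).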
In general terms: In Alpha technology, singlet oxygen from a donor bead excites a nearby acceptor bead.
With `Cc1nc(N2CCc3c(c(C)nn3CC34CCC(N5CCOCC5)(CC3)CC4)C2)c2c(C)noc2n1` [compound 37, 3,6-dimethyl-4-(3-methyl-1-((4-morpholinobicyclo[2.2.2]octan-1-yl)methyl)-6,7-dihydro-1H-pyrazolo[4,3-c]pyridin-5(4H)-yl)isoxazolo[5,4-d]pyrimidine], the IC50 was > 10000 nM. Next, `Cc1nc(N2CCc3c(c(C)nn3CC34CCC(N5CCCCC5)(CC3)CC4)C2)c2c(n1)c(C)nn2C` [compound 38, 1,3,5-trimethyl-7-(3-methyl-1-((4-(piperidin-1-yl)bicyclo[2.2.2]octan-1-yl)methyl)-6,7-dihydro-1H-pyrazolo[4,3-c]pyridin-5(4H)-yl)-1H-pyrazolo[4,3-d]pyrimidine]: > 10000 nM. Next, `Cc1nc(N2CCc3c(c(C)nn3CC34CCC(N5CCCCC5)(CC3)CC4)C2)c2cnn(C)c2n1` [compound 39, 1,6-dimethyl-4-(3-methyl-1-((4-(piperidin-1-yl)bicyclo[2.2.2]octan-1-yl)methyl)-6,7-dihydro-1H-pyrazolo[4,3-c]pyridin-5(4H)-yl)-1H-pyrazolo[3,4-c]pyrimidine]: > 10000 nM; `[2H]C([2H])([2H])N(C([2H])([2H])[2H])C12CCC(Cn3nc(C)c4c3CCN(c3nc(C)nc5c(C)nn(C)c35)C4)(CC1)CC2` [compound 40, 4-((3-methyl-5-(1,3,5-trimethyl-1H-pyrazolo[4,3-d]pyrimidin-7-yl)-4,5,6,7-tetrahydro-1H-pyrazolo[4,3-c]pyridin-1-yl)methyl)-N,N-bis(trideuteromethyl)bicyclo[2.2.2]octan-1-amine]: 2520 nM. Next, `Cc1nn(CC23CCC(N)(CC2)CC3)c2c1CN(c1ccnc3[nH]ncc13)CC2` [compound 41, 4-((3-methyl-5-(1H-pyrazolo[3,4-b]pyridin-4-yl)-4,5,6,7-tetrahydro-1H-pyrazolo[4,3-c]pyridin-1-yl)methyl)bicyclo[2.2.2]octan-1-amine]: 817 nM; `Cc1c2c(nn1CC13CCC(N)(CC1)CC3)CCN(c1ccnc3[nH]ncc13)C2` [compound 42, 4-((3-methyl-5-(1H-pyrazolo[3,4-b]pyridin-4-yl)-4,5,6,7-tetrahydro-2H-pyrazolo[4,3-c]pyridin-2-yl)methyl)bicyclo[2.2.2]octan-1-amine]: 472 nM; `Cc1cc(N2CCc3c(c(C)nn3CC34CCC(N)(CC3)C4)C2)c2cnn(C)c2n1` [compound 44, 4-((5-(1,6-dimethyl-1H-pyrazolo[3,4-b]pyridin-4-yl)-3-methyl-4,5,6,7-tetrahydro-1H-pyrazolo[4,3-c]pyridin-1-yl)methyl)bicyclo[2.2.1]heptan-1-amine]: 1210 nM. Consider `Cc1cc(N2CCc3c(c(C(F)(F)F)nn3CC34CCC(N)(CC3)CC4)C2)c2cnn(C)c2n1` [compound 45, 4-((5-(1,6-dimethyl-1H-pyrazolo[3,4-b]pyridin-4-yl)-3-(trifluoromethyl)-4,5,6,7-tetrahydro-1H-pyrazolo[4,3-c]pyridin-1-yl)methyl)bicyclo[2.2.2]octan-1-amine], for which the IC50 was 2060 nM.

Turning to `Cc1cc(N2CCc3c(c(C)nn3CC34CCC(NCC(=O)N5CCCCC5)(CC3)CC4)C2)c2cnn(C)c2n1` [compound 99, 2-((4-((5-(1,6-dimethyl-1H-pyrazolo[3,4-b]pyridin-4-yl)-3-methyl-4,5,6,7-tetrahydro-1H-pyrazolo[4,3-c]pyridin-1-yl)methyl)bicyclo[2.2.2]octan-1-yl)amino)-1-(piperidin-1-yl)ethanone], the IC50 is 2840 nM. Next, `Cc1cc(N2CCc3c(c(C)nn3CC34CCC(NC(=O)CN5CCCC5)(CC3)CC4)C2)c2cnn(C)c2n1` [compound 100, N-(4-((5-(1,6-dimethyl-1H-pyrazolo[3,4-b]pyridin-4-yl)-3-methyl-4,5,6,7-tetrahydro-1H-pyrazolo[4,3-c]pyridin-1-yl)methyl)bicyclo[2.2.2]octan-1-yl)-2-(pyrrolidin-1-yl)acetamide]: 1360 nM.

As for `COCCNC12CCC(Cn3nc(C)c4c3CCN(c3cc(C)nc5c3cnn5C)C4)(CC1)OC2` [compound 102, 1-((5-(1,6-dimethyl-1H-pyrazolo[3,4-b]pyridin-4-yl)-3-methyl-4,5,6,7-tetrahydro-1H-pyrazolo[4,3-c]pyridin-1-yl)methyl)-N-(2-methoxyethyl)-2-oxabicyclo[2.2.2]octan-4-amine], the IC50 was determined as 1240 nM.

Turning to `Cc1cc(N2CCc3c(c(C)nn3CC34CCC(NC(=O)CCN(C)C)(CC3)CC4)C2)c2cnn(C)c2n1` [compound 105, N-(4-((5-(1,6-dimethyl-1H-pyrazolo[3,4-b]pyridin-4-yl)-3-methyl-4,5,6,7-tetrahydro-1H-pyrazolo[4,3-c]pyridin-1-yl)methyl)bicyclo[2.2.2]octan-1-yl)-3-(dimethylamino)propanamide], the IC50 is 1630 nM. For `Cc1cc(N2CCc3c(c(C)nn3CC34CCC(NCC(=O)N5CCCC5)(CC3)CC4)C2)c2cnn(C)c2n1` [compound 106, 2-((4-((5-(1,6-dimethyl-1H-pyrazolo[3,4-b]pyridin-4-yl)-3-methyl-4,5,6,7-tetrahydro-1H-pyrazolo[4,3-c]pyridin-1-yl)methyl)bicyclo[2.2.2]octan-1-yl)amino)-1-(pyrrolidin-1-yl)ethanone], the IC50 turned out to be 2660 nM. Turning to `Cc1cc(N2CCc3c(c(C)nn3CC34CCC(N5CCO[C@H](C)C5)(CC3)CC4)C2)c2cnn(C)c2n1` [compound 107, (R)-4-(4-((5-(1,6-dimethyl-1H-pyrazolo[3,4-b]pyridin-4-yl)-3-methyl-4,5,6,7-tetrahydro-1H-pyrazolo[4,3-c]pyridin-1-yl)methyl)bicyclo[2.2.2]octan-1-yl)-2-methylmorpholine], the IC50 turned out to be 1710 nM. Turning to `Cc1cc(N2CCc3c(c(C)nn3CC34CCC(N5CCO[C@@H](C)C5)(CC3)CC4)C2)c2cnn(C)c2n1` [compound 109, (S)-4-(4-((5-(1,6-dimethyl-1H-pyrazolo[3,4-b]pyridin-4-yl)-3-methyl-4,5,6,7-tetrahydro-1H-pyrazolo[4,3-c]pyridin-1-yl)methyl)bicyclo[2.2.2]octan-1-yl)-2-methylmorpholine], the IC50 amounted to 515 nM. The figure for `Cc1cc(N2CCc3c(c(C)nn3CC34CCC(N5C[C@@H](C)O[C@@H](C)C5)(CC3)CC4)C2)c2cnn(C)c2n1` [compound 110, (2S,6R)-4-(4-((5-(1,6-dimethyl-1H-pyrazolo[3,4-b]pyridin-4-yl)-3-methyl-4,5,6,7-tetrahydro-1H-pyrazolo[4,3-c]pyridin-1-yl)methyl)bicyclo[2.2.2]octan-1-yl)-2,6-dimethylmorpholine] is 1900 nM; for `Cc1cc(N2CCc3c(c(C)nn3CC34CCC(N5C[C@H](C)O[C@@H](C)C5)(CC3)CC4)C2)c2cnn(C)c2n1` [compound 111, (2S,6S)-4-(4-((5-(1,6-dimethyl-1H-pyrazolo[3,4-b]pyridin-4-yl)-3-methyl-4,5,6,7-tetrahydro-1H-pyrazolo[4,3-c]pyridin-1-yl)methyl)bicyclo[2.2.2]octan-1-yl)-2,6-dimethylmorpholine] it is 1410 nM. The figure for `Cc1cc(N2CCc3c(c(C)nn3CC34CCC(NCC5CCC5)(CC3)CO4)C2)c2cnn(C)c2n1` [compound 112, N-(cyclobutylmethyl)-1-((5-(1,6-dimethyl-1H-pyrazolo[3,4-b]pyridin-4-yl)-3-methyl-4,5,6,7-tetrahydro-1H-pyrazolo[4,3-c]pyridin-1-yl)methyl)-2-oxabicyclo[2.2.2]octan-4-amine] is 1190 nM; for `Cc1cc(N2CCc3c(c(C)nn3CC34CCC(N5C[C@@H](C)O[C@H](C)C5)(CC3)CC4)C2)c2cnn(C)c2n1` [compound 113, (2R,6R)-4-(4-((5-(1,6-dimethyl-1H-pyrazolo[3,4-b]pyridin-4-yl)-3-methyl-4,5,6,7-tetrahydro-1H-pyrazolo[4,3-c]pyridin-1-yl)methyl)bicyclo[2.2.2]octan-1-yl)-2,6-dimethylmorpholine] it is 1410 nM. Next, `CCNCC(=O)NC12CCC(Cn3nc(C)c4c3CCN(c3cc(C)nc5c3cnn5C)C4)(CC1)CC2` [compound 114, N-(4-((5-(1,6-dimethyl-1H-pyrazolo[3,4-b]pyridin-4-yl)-3-methyl-4,5,6,7-tetrahydro-1H-pyrazolo[4,3-c]pyridin-1-yl)methyl)bicyclo[2.2.2]octan-1-yl)-2-(ethylamino)acetamide]: 1550 nM.
